Laboratory results published in ChEMBL document CHEMBL1141269, “Pordamacrines A and B, alkaloids from Daphniphyllum macropodum” (2007).

System: Thoracic aorta
Assay: Vasorelaxant activity against norepinephrine-induced contraction in Wistar rat thoracic aorta at 100 uM
Format: functional
Set-up: scale not given: the % may be the effect or the level left

COC(=O)[C@@H]1C[C@@]23C4=C(CCC5CN6C[C@@H](C)C(O)(C=CC52CO)C63O)CC[C@@H]41 (some centres not stated) [PORDAMACRINE A]
Activity: 50%

COC(=O)[C@@H]1C[C@@]23C4=C(CCC5CN6C[C@@H](C)C(C=CC52CO)C63O)CC[C@@H]41 (some centres not stated) [PORDAMACRINE B]
Activity: 47.1%
